Common to all, as to test: Post-emergence efficacy, glasshouse, evaluated after 13 days
Holding throughout (format): in vivo

Experiment [1] has as its system Chenopodium album (CHEAL). The note with it: Chenopodium album, 312 h; post-emergence application, 500 g/Ha, evaluated after 13 days; read-out: Control of weed species CHEAL (100=total damage to plant; 0=no damage to plant). In short, it runs like this:
(§1)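 Damage rated on a 0–100 scale (100 = plant killed) 13 days after spraying. Spray contained compound in IF50 emulsifier, diluted with 0.25% or 1% Empicol ESC70 plus 1% ammonium sulphate, applied to 14-day-old glasshouse plants (24/16° C., 14 h light, 65% humidity).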

The test system of a further experiment is Eleusine indica (ELEIN). The note with it: Eleusine indica, 312 h; post-emergence application, 500 g/Ha, evaluated after 13 days; read-out: Control of weed species ELEIN (100=total damage to plant; 0=no damage to plant). An outline of the steps: as §1
Experiment [2] relates to Amaranthus palmeri (AMAPA). As to conditions: Amaranthus palmeri, 312 h; post-emergence application, 500 g/Ha, evaluated after 13 days; read-out: Control of weed species AMAPA (100=total damage to plant; 0=no damage to plant). An outline of the steps:
as §1

The subject of experiment [3] is Ipomoea hederacea (IPOHE). The note with it: Ipomoea hederacea, 312 h; post-emergence application, 500 g/Ha, evaluated after 13 days; read-out: Control of weed species IPOHE (100=total damage to plant; 0=no damage to plant). An outline of the steps: as §1
The subject of another experiment is Setaria faberi (SETFA). The note with it: Setaria faberi, 312 h; post-emergence application, 500 g/Ha, evaluated after 13 days; read-out: Control of weed species SETFA (100=total damage to plant; 0=no damage to plant). An outline of the steps:
as §1

Experiment [4] has as its system Euphorbia heterophylla (EPHHL). As to conditions: Euphorbia heterophylla, 312 h; post-emergence application, 500 g/Ha, evaluated after 13 days; read-out: Control of weed species EPHHL (100=total damage to plant; 0=no damage to plant). In short, it runs like this: as §1
Another experiment has as its system Lolium perenne (LOLPE). The note with it: Lolium perenne, 312 h; post-emergence application, 500 g/Ha, evaluated after 13 days; read-out: Control of weed species LOLPE (100=total damage to plant; 0=no damage to plant). An outline of the steps: as §1
In experiment [5] the test system is Echinochloa crus-galli (ECHCG). As to conditions: Echinochloa crus-galli, 312 h; post-emergence application, 500 g/Ha, evaluated after 13 days; read-out: Control of weed species ECHCG (100=total damage to plant; 0=no damage to plant). An outline of the steps: as §1
The subject of experiment [6] is Digitaria sanguinalis (DIGSA). The note with it: Digitaria sanguinalis, 312 h; post-emergence application, 500 g/Ha, evaluated after 13 days; read-out: Control of weed species DIGSA (100=total damage to plant; 0=no damage to plant). An outline of the steps: as §1

Each structure is given as a SMILES string.

On to `O=C(O)CC[n+]1ccc(C(=O)NC2(C(F)(F)F)CC2)cn1` [Compound A94], for which the pest or weed control at 500 g/ha in [1] was found to be 100%; in the experiment on Eleusine indica (ELEIN), 100%; in experiment [2] it was 100%; in experiment [3], 60%; in the experiment on Setaria faberi (SETFA), 90%; in experiment [4], 90%. Besides, the results for the pest or weed control at 500 g/ha (in the experiment with Lolium perenne (LOLPE); in experiment [5]; in [6]) were 80%, 80% and 90%, respectively.

`O=C(O)CC[n+]1ccc(C(=O)NC2CC2(F)F)cn1` (stereo not drawn) [Compound A95]: the pest or weed control at 500 g/ha came out at 100% in [1]; 100% with Eleusine indica (ELEIN); 100% in [2]; 60% in experiment [3]; 100% in the experiment with Setaria faberi (SETFA); 100% in experiment [4]. The results for the pest or weed control at 500 g/ha (with Lolium perenne (LOLPE); in experiment [5]; in experiment [6]) were 60%, 80% and 100%, respectively.

`N#Cc1ccc(CNC(=O)c2cc[n+](CCC(=O)O)nc2)cc1` [Compound A96]: the pest or weed control at 500 g/ha in [1] was found to be 80%; in the experiment with Eleusine indica (ELEIN), 50%; in experiment [2] it was 100%; in experiment [3], 40%; with Setaria faberi (SETFA), 30%; in [4] it was 100%. For the same compound, the pest or weed control at 500 g/ha (in the experiment with Lolium perenne (LOLPE); in experiment [5]; in experiment [6]) was 20% each time.

Regarding `O=C(O)CC[n+]1ccc(C(=O)NCC(F)(F)C(F)(F)F)cn1` [Compound A97], the pest or weed control at 500 g/ha in [1] is 100%; in the experiment with Eleusine indica (ELEIN), 60%; in [2], 100%; in experiment [3], 30%; with Setaria faberi (SETFA), 90%; in experiment [4], 90%. The pest or weed control at 500 g/ha worked out at 90% in the experiment on Lolium perenne (LOLPE), 60% in experiment [5] and 90% in experiment [6].

Consider `O=C(O)CC[n+]1ccc(C(=O)NCc2ccc(C(F)(F)F)cc2)cn1` [Compound A98], for which the pest or weed control at 500 g/ha stood at 70% in experiment [1]; 90% with Eleusine indica (ELEIN); 90% in experiment [2]; 20% in experiment [3]; 30% in the experiment on Setaria faberi (SETFA); 100% in [4]. Moreover, the pest or weed control at 500 g/ha with Lolium perenne (LOLPE) came to 0%; in experiment [5] it was 50%; in experiment [6], 60%.

With `CC1(NC(=O)c2cc[n+](CCNS(=O)(=O)[O-])nc2)CC1` [Compound A99], the pest or weed control at 500 g/ha in [1] is 40%; in the experiment on Eleusine indica (ELEIN), 70%; in experiment [2] it was 50%; in experiment [3], 30%; with Setaria faberi (SETFA), 90%; in experiment [4] it was 40%. The pest or weed control at 500 g/ha in the experiment on Lolium perenne (LOLPE) turned out to be 40%; in experiment [5], 60%; in [6], 100%.

On to `CC(C)(CO)NC(=O)c1cc[n+](CCC(=O)O)nc1` [Compound A100], for which the pest or weed control at 500 g/ha is 20% in experiment [1]; 40% with Eleusine indica (ELEIN); 60% in experiment [2]; 20% in experiment [3]; 90% with Setaria faberi (SETFA); 30% in experiment [4]. The pest or weed control at 500 g/ha worked out at 50% in the experiment on Lolium perenne (LOLPE), 60% in [5] and 70% in [6].

Regarding `CC1CC1NC(=O)c1cc[n+](CCC(=O)O)nc1` (stereo not drawn) [Compound A101], the pest or weed control at 500 g/ha in experiment [1] was determined as 100%; with Eleusine indica (ELEIN) it was 70%; in experiment [2], 100%; in [3], 50%; in the experiment with Setaria faberi (SETFA), 90%; in [4], 50%. The results for the pest or weed control at 500 g/ha (with Lolium perenne (LOLPE); in [5]; in experiment [6]) were 80%, 90% and 100%, respectively.

On to `O=C(O)CC[n+]1ccc(C(=O)Nc2nccs2)cn1` [Compound A102], for which the pest or weed control at 500 g/ha was 60% in experiment [1]; 0% in the experiment on Eleusine indica (ELEIN); 100% in experiment [2]; 20% in experiment [3]; 10% in the experiment on Setaria faberi (SETFA); 20% in experiment [4]. Moreover, the pest or weed control at 500 g/ha (in the experiment on Lolium perenne (LOLPE); in [5]; in experiment [6]) was 0% each time.

As for `C[S+]([O-])CCNC(=O)c1cc[n+](CCC(=O)O)nc1` (stereo not drawn) [Compound A103], the pest or weed control at 500 g/ha amounted to 90% in [1]; 90% in the experiment with Eleusine indica (ELEIN); 90% in experiment [2]; 50% in [3]; 100% in the experiment on Setaria faberi (SETFA); 50% in [4]. For the same compound, the pest or weed control at 500 g/ha is 40% in the experiment with Lolium perenne (LOLPE), 80% in experiment [5] and 90% in [6].

Consider `CS(=O)(=O)CCNC(=O)c1cc[n+](CCC(=O)O)nc1` [Compound A104], for which the pest or weed control at 500 g/ha in experiment [1] amounted to 100%; in the experiment on Eleusine indica (ELEIN) it was 100%; in experiment [2], 100%; in experiment [3], 80%; in the experiment on Setaria faberi (SETFA) it was 100%; in [4] it was 100%. For the same compound, the pest or weed control at 500 g/ha is 70% in the experiment on Lolium perenne (LOLPE), 70% in experiment [5] and 100% in [6].

As for `O=C(O)CC[n+]1ccc(C(=O)Nc2ccc(F)cc2F)cn1` [Compound A106], the pest or weed control at 500 g/ha was found to be 50% in experiment [1]; 70% with Eleusine indica (ELEIN); 100% in experiment [2]; 30% in [3]; 90% with Setaria faberi (SETFA); 60% in [4]. Moreover, the pest or weed control at 500 g/ha was determined as 50% in the experiment with Lolium perenne (LOLPE), 10% in [5] and 40% in experiment [6].

Turning to `CN(CC#N)C(=O)c1cc[n+](CCC(=O)O)nc1` [Compound A107], the pest or weed control at 500 g/ha in [1] is 20%; in the experiment with Eleusine indica (ELEIN), 20%; in experiment [2], 100%; in experiment [3], 20%; in the experiment with Setaria faberi (SETFA), 60%; in [4] it was 100%. For the same compound, the pest or weed control at 500 g/ha is 0% in the experiment with Lolium perenne (LOLPE), 60% in [5] and 40% in experiment [6].

For `O=C(O)CC[n+]1ccc(C(=O)N2CCS(=O)(=O)CC2)cn1` [Compound A108], the pest or weed control at 500 g/ha in experiment [1] turned out to be 100%; in the experiment on Eleusine indica (ELEIN), 80%; in experiment [2] it was 100%; in experiment [3] it was 70%; in the experiment on Setaria faberi (SETFA) it was 90%; in experiment [4] it was 80%. For the same compound, the pest or weed control at 500 g/ha was found to be 40% in the experiment on Lolium perenne (LOLPE), 70% in experiment [5] and 90% in experiment [6].

For `O=C(O)CC[n+]1ccc(C(=O)N2CC[S+]([O-])CC2)cn1` [Compound A109], the pest or weed control at 500 g/ha amounted to 90% in experiment [1]; 90% in the experiment with Eleusine indica (ELEIN); 100% in experiment [2]; 60% in experiment [3]; 90% with Setaria faberi (SETFA); 90% in [4]. The results for the pest or weed control at 500 g/ha (in the experiment with Lolium perenne (LOLPE); in [5]; in [6]) were 30%, 70% and 80%, respectively.
